Reference: US8853207B2 (Development Center for Biotechnology, priority 2012, dated 2014)
Structures can show the parent of a compound that is named as a salt.

What was measured:
Format in all cases: biochemical
[1] = biological target: PDGFR-β kinase (recombinant N-terminal 6×His-tagged PDGFR-β kinase domain) (Homo sapiens (Human), UniProt P09619); assay: PDGFR-β kinase assay ([33P] incorporation into substrate); conditions: 30 nM ATP, 30° C., 30 minutes; read-out: IC50 (nM) PDGFRβ
Procedure: (§1) Inhibition of PDGFR-β kinase activity by compounds disclosed herein was quantified by measuring the amount of [^33P] incorporated into the substrate in the presence of a test compound. Briefly, a reaction mixture of 25 μL final volume containing 55 ng of PDGFR-β kinase (obtained by purifying recombinant N-terminal 6×His-tagged PDGFR-β kinase domain construct expressed by baculovirus), 2.5 μg of the substrate [Poly (Glu-Tyr, 4:1), Sigma], kinase reaction buffer (20 mM MOPS pH 7.0, 1 mM EDTA, 5% glycerol, 0.01% Brij-35, 0.1% β-mercaptoethanol, 1 mg/mL BSA, 2 mM MnCl2, 30 nM ATP, 0.1 μCi per well [^33P]-γ-ATP (2,500-3,000 Ci/mmol)), and a test compound (diluted from 9 μM to the desired final concentration by 4% DMSO) or DMSO (as the control) was incubated at 30° C. for 30 minutes. The reaction was stopped by adding 5 μL of 3% phosphoric acid solution. The resultant solution (30 μL) was later harvested by a UniFilter Plate GF/B (PerkinElmer) followed by adding 30 μL of the scintillation cocktail (MicroScint 20, PerkinElmer) to the well. The radioactivity retained on the filter membrane was measured by a luminescence counter (PerkinElmer). The results were analyzed by using linear regression software (GraphPad Prism 4; GraphPad Software Inc.).

[2] = biological target: C-kit kinase (recombinant N-terminal 6×His-tagged C-kit kinase domain) (Homo sapiens (Human), UniProt P10721); assay: C-kit kinase assay ([33P] incorporation into substrate); conditions: 100 μM ATP, 30° C., 30 minutes
Procedure: Inhibition of C-kit kinase activity by compounds disclosed herein was quantified by measuring the amount of [^33P] incorporated into the substrate in the presence of a test compound. Briefly, a reaction mixture of 25 μL final volume containing 5 ng of C-kit kinase (obtained by purifying recombinant N-terminal 6×His-tagged C-kit kinase domain construct expressed from baculovirus), 5 μg of the substrate [Poly (Glu-Tyr, […], Sigma], kinase reaction buffer (8 mM MOPS/NaOH pH7.0, 0.2 mM EDTA, 10 mM MnCl2, 0.5% glycerol, 0.001% Brij-35, 0.01%, 2-mercaptoethanol, 0.1 mg/ml BSA, 100 μM ATP, 0.1 μCi per well [^33P]-γ-ATP (2,500-3,000 Ci/mmol)), and a test compound (diluted from 9 μM to the desired final concentration by 4% DMSO) or DMSO (as the control) was incubated at 30° C. for 30 minutes. The reaction was stopped by adding 5 μL of 3% phosphoric acid solution. The resultant solution (30 μL) was later harvested by a UniFilter Plate GF/B (PerkinElmer) followed by adding 30 μL of the scintillation cocktail (MicroScint 20, PerkinElmer) to the well. The radioactivity retained on the filter membrane was measured by a luminescence counter (PerkinElmer). The results were analyzed by using linear regression software (GraphPad Prism 4; GraphPad Software Inc.).

[3] = biological target: FLT3 kinase (FLT3 kinase domain alone, Upstate) (Homo sapiens (Human), UniProt P36888); assay: FLT3 kinase assay ([33P] incorporation into substrate); conditions: 100 μM ATP, 30° C., 30 minutes; read-out: IC50 against FLT3
Procedure: as §1, with “FLT3” for “PDGFR-β”, “5” for “55”, “(FLT3” for “(obtained by purifying recombinant N-terminal 6×His-tagged PDGFR-β”, “alone, Upstate), 5” for “construct expressed by baculovirus), 2.5”, “[(Poly” for “[Poly”, “100 μM” for “2 mM MnCl2, 30 nM”

C-kit kinase (recombinant N-terminal 6×His-tagged C-kit kinase domain), sequence (P10721 589-937): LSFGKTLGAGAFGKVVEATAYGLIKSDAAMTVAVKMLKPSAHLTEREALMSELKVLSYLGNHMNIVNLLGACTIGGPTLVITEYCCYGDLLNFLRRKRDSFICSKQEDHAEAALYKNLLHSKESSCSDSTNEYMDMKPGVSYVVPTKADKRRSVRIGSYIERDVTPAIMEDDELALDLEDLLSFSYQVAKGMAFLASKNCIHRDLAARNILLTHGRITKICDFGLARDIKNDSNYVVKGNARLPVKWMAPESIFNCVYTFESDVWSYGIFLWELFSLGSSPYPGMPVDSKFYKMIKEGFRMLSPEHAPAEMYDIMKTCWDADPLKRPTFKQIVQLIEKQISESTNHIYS
PDGFR-β kinase (recombinant N-terminal 6×His-tagged PDGFR-β kinase domain), sequence (P09619 600-962): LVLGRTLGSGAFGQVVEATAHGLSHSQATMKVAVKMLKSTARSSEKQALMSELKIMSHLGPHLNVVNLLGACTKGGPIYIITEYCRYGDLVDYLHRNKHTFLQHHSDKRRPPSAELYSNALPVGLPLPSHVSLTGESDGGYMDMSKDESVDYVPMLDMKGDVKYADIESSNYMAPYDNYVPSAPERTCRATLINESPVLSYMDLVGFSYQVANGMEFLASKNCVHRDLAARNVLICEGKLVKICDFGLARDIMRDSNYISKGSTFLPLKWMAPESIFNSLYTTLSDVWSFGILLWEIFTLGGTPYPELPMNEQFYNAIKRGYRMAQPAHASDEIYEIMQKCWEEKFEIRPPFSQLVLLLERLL
FLT3 kinase (FLT3 kinase domain alone, Upstate), sequence (P36888 610-943): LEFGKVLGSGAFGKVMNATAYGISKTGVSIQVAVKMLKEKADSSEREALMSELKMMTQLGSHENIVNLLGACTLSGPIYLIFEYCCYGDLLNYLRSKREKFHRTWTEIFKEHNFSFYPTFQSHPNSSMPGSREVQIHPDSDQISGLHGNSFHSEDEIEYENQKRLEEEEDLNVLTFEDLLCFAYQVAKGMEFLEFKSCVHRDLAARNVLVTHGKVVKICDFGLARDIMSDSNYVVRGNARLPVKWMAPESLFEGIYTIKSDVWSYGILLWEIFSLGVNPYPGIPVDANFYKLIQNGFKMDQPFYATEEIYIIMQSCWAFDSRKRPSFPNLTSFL

| SMILES | IC50 [1] | IC50 [2] | IC50 [3] |
| --- | --- | --- | --- |
| COc1ccc(-c2n[nH]c3c2Cc2sc(-c4cccnc4)cc2-3)cc1 [Example-70, 6-(4-Methoxy-phenyl)-2-pyridin-3-yl-4,7-dihydro-1-thia-4,5-diaza-cyclopenta[a]pentalene] | 479 nM | 24.8 nM | < 100 nM |
| COc1ccc(-c2n[nH]c3c2Cc2sc(-c4ccncc4)cc2-3)cc1 [Example-69, 6-(4-Methoxy-phenyl)-2-pyridin-4-yl-4,7-dihydro-1-thia-4,5-diaza-cyclopenta[a]pentalene] | 316 nM | 22 nM | < 100 nM |
| Nc1ccc(-c2n[nH]c3c2Cc2sccc2-3)cc1 [Example-2, 4-(4,7-Dihydro-1-thia-4,5-diaza-cyclopenta[a]pentalen-6-yl)-phenylamine hydrochloride] | 859 nM | 201 nM | < 100 nM |
| Oc1cccc(Nc2ccc(-c3n[nH]c4c3Cc3sccc3-4)cc2)c1 [Example-10, 3-[4-(4,7-Dihydro-1-thia-4,5-diaza-cyclopenta[a]pentalen-6-yl)-phenylamino]-phenol] | 118 nM | 139 nM | < 100 nM |
| FC(F)(F)c1ccc(-c2ccc(-c3n[nH]c4c3Cc3sccc3-4)cc2)cc1 [Example-19, 6-(4′-Trifluoromethyl-biphenyl-4-yl)-4,7-dihydro-1-thia-4,5-diaza-cyclopenta[a]pentalene] | – | – | > 1000 nM |
| COc1ccc(-c2ccc(-c3n[nH]c4c3Cc3sccc3-4)cc2)cc1OC [Example-14, 6-(3′,4′-Dimethoxy-biphenyl-4-yl)-4,7-dihydro-1-thia-4,5-diaza-cyclopenta[a]pent alene] | – | – | < 100 nM |
| Clc1cccc(Nc2[nH]nc3c2Cc2sccc2-3)c1 [Example-25, (3-Chloro-phenyl)-(4,7-dihydro-1-thia-4,5-diaza-cyclopenta[a]pentalen-6-yl)-amine] | – | – | < 100 nM |

More lines, now with the values ahead:

| IC50 [1] | IC50 [2] | IC50 [3] | SMILES |
| --- | --- | --- | --- |
| 176 nM | 12.2 nM | < 100 nM | COc1ccc(-c2n[nH]c3c2Cc2sc(-c4ccc(NC(=O)CN5CCCC5)nc4)cc2-3)cc1 [Example-82, N-{5-[6-(4-Methoxy-phenyl)-4,7-dihydro-1-thia-4,5-diaza-cyclopenta[a]pentalen-2-yl]-pyridin-2-yl}-2-pyrrolidin-1-yl-acetamide] |
| 363 nM | 27.5 nM | < 100 nM | COc1ccc(-c2n[nH]c3c2Cc2sc(-c4ccc(N)nc4)cc2-3)cc1 [Example-78, 5-[6-(4-Methoxy-phenyl)-4,7-dihydro-1-thia-4,5-diaza-cyclopenta[a]pentalen-2-yl]-pyridin-2-ylamine] |
| – | – | < 100 nM | COc1ccc(-c2n[nH]c3c2Cc2sc(-c4ccc(N5CCN(C)CC5)nc4)cc2-3)cc1 [Example-81, 6-(4-Methoxy-phenyl)-2-[6-(4-methyl-piperazin-1-yl)-pyridin-3-yl]-4,7-dihydro-1-thia-4,5-diaza-cyclopenta[a]pentalene] |
| – | – | < 100 nM | COc1ccc(-c2n[nH]c3c2Cc2sc(-c4cncc(N)c4)cc2-3)cc1 [Example-91, 5-[6-(4-Methoxy-phenyl)-4,7-dihydro-1-thia-4,5-diaza-cyclopenta[a]pentalen-2-yl]-pyridin-3-ylamine hydrochloride] |
